ChEMBL document CHEMBL4334471, “Discovery of 1,8-disubstituted-[1,2,3]triazolo[4,5-c]quinoline derivatives as a new class of Hippo signaling pathway inhibitors” (Bioorg Med Chem Lett, 2019)

Legend:
[1] = molecular target: Serine/threonine-protein kinase Chk1 (Homo sapiens) (UniProt O14757); assay: Inhibition of recombinant full length human CHK1 assessed as residual activity at 10 uM using KKKVSRSGLYRSPSMPENLNRPR as substrate incubated for 40 mins in presence of [gamma-33ATP] by scintillation counting based radiometry assay relative to control
[2] = molecular target: Tyrosine-protein kinase ABL2 (Homo sapiens) (UniProt P42684); assay: Inhibition of human Arg (38 to end residues) assessed as residual activity at 10 uM using EAIYAAPFAKKK as substrate incubated for 40 mins in presence of [gamma-33ATP] by scintillation counting based radiometry assay relative to control
[3] = molecular target: SRSF protein kinase 1 (Homo sapiens) (UniProt Q96SB4); assay: Inhibition of recombinant human SRPK1 (2 to end residues) assessed as residual activity at 10 uM using RSRSRSRSRSRSRSR as substrate incubated for 40 mins in presence of [gamma33P]ATP by scintillation counting based radiometry assay relative to control
A549 = assay: Upregulation of CYR61 in human A549 cells incubated for 24 hrs by qRT-PCR analysis; assay type: functional, cell-based
[4] = molecular target: Vascular endothelial growth factor receptor 2 (Homo sapiens) (UniProt P35968); assay: Inhibition of human KDR (790 to end residues) assessed as residual activity at 10 uM using myelin basic protein as substrate after 40 mins by [gamma-33ATP] radiometric assay relative to control
[5] = test system: Tyrosine-protein kinase ABL1 (Homo sapiens), P00519 [Y253F]; assay: Inhibition of human ABL1 Y253F mutant (27 to end residues) assessed as residual activity at 10 uM using EAIYAAPFAKKK as substrate incubated for 40 mins in presence of [gamma-33ATP] by scintillation counting based radiometry assay relative to control
[6] = molecular target: Serine/threonine-protein kinase MARK2 (Homo sapiens) (UniProt Q7KZI7); assay: Inhibition of recombinant full-length human PAR1Balpha assessed as residual activity at 10 uM using KKKVSRSGLYRSPSMPENLNRPR as substrate measured after 40 mins in presence of [gamma33P]ATP by scintillation counting based radiometry assay relative to control
Sequence of Serine/threonine-protein kinase MARK2 (Homo sapiens) (Q7KZI7 whole entry): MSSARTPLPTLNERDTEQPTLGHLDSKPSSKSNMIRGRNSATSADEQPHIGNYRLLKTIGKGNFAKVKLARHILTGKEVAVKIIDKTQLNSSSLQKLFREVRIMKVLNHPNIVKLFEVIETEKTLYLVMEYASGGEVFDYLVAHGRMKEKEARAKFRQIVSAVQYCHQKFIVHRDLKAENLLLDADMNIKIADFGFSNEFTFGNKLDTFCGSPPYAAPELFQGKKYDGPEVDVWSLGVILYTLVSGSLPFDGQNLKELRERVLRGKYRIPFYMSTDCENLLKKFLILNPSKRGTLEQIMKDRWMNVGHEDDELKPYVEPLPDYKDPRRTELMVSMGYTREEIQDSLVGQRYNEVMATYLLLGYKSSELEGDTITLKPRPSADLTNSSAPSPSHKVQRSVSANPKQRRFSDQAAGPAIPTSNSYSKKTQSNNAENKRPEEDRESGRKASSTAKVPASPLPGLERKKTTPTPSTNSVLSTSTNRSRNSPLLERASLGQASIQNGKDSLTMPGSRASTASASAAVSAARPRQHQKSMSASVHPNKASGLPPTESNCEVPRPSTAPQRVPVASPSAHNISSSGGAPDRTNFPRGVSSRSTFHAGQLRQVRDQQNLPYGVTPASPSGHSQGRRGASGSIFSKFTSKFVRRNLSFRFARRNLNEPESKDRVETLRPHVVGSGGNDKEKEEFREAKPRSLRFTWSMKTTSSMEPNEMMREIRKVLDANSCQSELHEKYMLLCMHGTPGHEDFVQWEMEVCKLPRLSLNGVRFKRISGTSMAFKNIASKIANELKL

[7] = test system: Serine/threonine-protein kinase N1 (Homo sapiens), Q16512 [V901I]; assay: Inhibition of recombinant human PRK1 V901I mutant (498 to end residues) assessed as residual activity at 10 uM using KKLNRTLSFAEPG as substrate incubated for 40 mins in presence of [gamma33P]ATP by scintillation counting based radiometry assay relative to control
[8] = molecular target: SRSF protein kinase 2 (Homo sapiens) (UniProt P78362); assay: Inhibition of recombinant human SRPK2 (46 to end residues) assessed as residual activity at 10 uM using RSRSRSRSRSRSRSR as substrate incubated for 40 mins in presence of [gamma33P]ATP by scintillation counting based radiometry assay relative to control
Sequence of SRSF protein kinase 2 (Homo sapiens) (P78362 whole entry, looked up): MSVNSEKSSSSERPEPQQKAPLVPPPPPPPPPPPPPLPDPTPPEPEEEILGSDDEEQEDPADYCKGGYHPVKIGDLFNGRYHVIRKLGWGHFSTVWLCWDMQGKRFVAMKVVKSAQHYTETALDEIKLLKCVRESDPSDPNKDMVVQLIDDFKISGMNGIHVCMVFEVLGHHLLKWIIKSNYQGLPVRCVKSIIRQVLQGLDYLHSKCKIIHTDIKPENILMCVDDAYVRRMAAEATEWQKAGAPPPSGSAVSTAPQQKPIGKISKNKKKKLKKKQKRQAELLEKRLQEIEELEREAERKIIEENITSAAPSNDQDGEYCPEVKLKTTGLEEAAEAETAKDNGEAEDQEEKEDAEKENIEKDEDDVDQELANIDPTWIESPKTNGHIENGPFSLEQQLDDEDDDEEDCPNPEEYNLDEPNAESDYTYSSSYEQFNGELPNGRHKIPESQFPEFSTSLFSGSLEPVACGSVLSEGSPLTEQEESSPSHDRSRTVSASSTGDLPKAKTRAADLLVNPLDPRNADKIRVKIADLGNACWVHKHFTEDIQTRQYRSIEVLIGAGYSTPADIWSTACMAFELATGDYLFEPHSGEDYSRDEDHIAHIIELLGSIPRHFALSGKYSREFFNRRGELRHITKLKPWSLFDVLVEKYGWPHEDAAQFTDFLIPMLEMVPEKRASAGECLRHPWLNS

[9] = test system: PI3-kinase p110-alpha/p85-alpha (Homo sapiens), P27986+P42336 [H1047R]; assay: Inhibition of recombinant full-length human PI3K p110/p85 H1047R mutant assessed as residual activity at 10 uM using phosphatidylinositol-4, 5-bisphosphate as substrate incubated for 40 mins in presence of [gamma33P]ATP by scintillation counting based radiometry assay relative to control
[10] = molecular target: Mitogen-activated protein kinase 14 (Homo sapiens) (UniProt Q16539); assay: Inhibition of recombinant human full length SAPK2a assessed as residual activity at 10 uM using myelin basic protein as substrate incubated for 40 mins in presence of [gamma33P]ATP by scintillation counting based radiometry assay relative to control
[11] = molecular target: Serine/threonine-protein kinase Nek7 (Homo sapiens) (UniProt Q8TDX7); assay: Inhibition of recombinant human NEK7 (2 to end residues) assessed as residual activity at 10 uM using FLAKSFGSPNRAYKK as substrate measured after 40 mins in presence of [gamma33P]ATP by scintillation counting based radiometry assay relative to control
Sequence of Serine/threonine-protein kinase Nek7 (Homo sapiens) (Q8TDX7 whole entry, looked up): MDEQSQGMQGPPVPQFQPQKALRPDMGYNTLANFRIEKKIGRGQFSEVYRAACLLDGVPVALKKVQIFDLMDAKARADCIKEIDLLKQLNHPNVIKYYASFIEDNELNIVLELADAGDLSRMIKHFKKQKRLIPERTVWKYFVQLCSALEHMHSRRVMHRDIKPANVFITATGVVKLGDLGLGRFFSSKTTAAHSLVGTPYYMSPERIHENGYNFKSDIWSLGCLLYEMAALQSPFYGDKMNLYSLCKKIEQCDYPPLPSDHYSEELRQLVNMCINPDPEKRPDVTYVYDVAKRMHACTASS

[12] = molecular target: Calcium/calmodulin-dependent protein kinase type IV (Homo sapiens) (UniProt Q16566); assay: Inhibition of recombinant full length human CaMK4 assessed as residual activity at 10 uM using […] incubated for 40 mins in presence of [gamma-33ATP] by scintillation counting based radiometry assay relative to control
Sequence of Calcium/calmodulin-dependent protein kinase type IV (Homo sapiens) (Q16566 whole entry, the tested form may be a part): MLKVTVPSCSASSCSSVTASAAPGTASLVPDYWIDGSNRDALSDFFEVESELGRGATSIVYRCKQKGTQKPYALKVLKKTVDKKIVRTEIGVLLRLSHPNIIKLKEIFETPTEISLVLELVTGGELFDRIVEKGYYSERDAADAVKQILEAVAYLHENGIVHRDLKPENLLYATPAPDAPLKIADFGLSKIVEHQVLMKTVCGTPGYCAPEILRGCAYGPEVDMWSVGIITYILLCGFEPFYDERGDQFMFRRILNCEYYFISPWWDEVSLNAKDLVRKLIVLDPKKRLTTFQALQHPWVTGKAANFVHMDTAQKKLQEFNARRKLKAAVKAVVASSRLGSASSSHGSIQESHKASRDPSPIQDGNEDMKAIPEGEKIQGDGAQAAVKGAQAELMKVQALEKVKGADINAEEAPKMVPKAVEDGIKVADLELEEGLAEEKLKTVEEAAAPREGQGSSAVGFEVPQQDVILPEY

[13] = test system: SNF-related serine/threonine-protein kinase (Homo sapiens), Q9NRH2 [UNDEFINED MUTATION]; assay: Inhibition of human SNRK E97G/P116A mutant (65 to 409 residues) assessed as residual activity at 10 uM using KKLRRTLSFAEPG as substrate incubated for 40 mins in presence of [gamma33P]ATP by scintillation counting based radiometry assay relative to control
Sequence of SNF-related serine/threonine-protein kinase (Homo sapiens), Q9NRH2 [UNDEFINED MUTATION] (Q9NRH2 whole entry, looked up, stated change not applied, the tested form may be a part): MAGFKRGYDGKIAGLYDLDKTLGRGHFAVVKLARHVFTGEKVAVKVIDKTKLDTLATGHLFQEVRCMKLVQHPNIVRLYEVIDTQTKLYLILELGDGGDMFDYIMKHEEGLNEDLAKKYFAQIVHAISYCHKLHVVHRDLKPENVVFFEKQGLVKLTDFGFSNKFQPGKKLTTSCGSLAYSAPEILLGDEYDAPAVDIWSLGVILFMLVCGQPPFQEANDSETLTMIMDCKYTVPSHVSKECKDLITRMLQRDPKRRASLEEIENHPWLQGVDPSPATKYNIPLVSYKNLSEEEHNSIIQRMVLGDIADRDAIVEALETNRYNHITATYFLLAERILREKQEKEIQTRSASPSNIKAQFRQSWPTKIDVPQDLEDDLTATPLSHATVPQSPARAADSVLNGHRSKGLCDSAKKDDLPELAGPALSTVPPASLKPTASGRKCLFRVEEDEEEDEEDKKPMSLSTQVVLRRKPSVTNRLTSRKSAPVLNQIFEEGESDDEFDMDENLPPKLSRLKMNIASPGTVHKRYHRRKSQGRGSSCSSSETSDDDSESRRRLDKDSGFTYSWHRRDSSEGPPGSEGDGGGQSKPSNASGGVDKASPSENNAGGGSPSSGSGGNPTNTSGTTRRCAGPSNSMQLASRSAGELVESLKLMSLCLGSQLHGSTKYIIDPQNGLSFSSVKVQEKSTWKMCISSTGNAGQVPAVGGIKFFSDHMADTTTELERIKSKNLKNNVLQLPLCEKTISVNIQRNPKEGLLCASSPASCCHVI

[14] = molecular target: Serine/threonine-protein kinase D2 (Homo sapiens) (UniProt Q9BZL6); assay: Inhibition of recombinant full-length human PKD2 assessed as residual activity at 10 uM using KKLNRTLSVA as substrate incubated for 40 mins in presence of [gamma33P]ATP by scintillation counting based radiometry assay relative to control
Sequence of Serine/threonine-protein kinase D2 (Homo sapiens) (Q9BZL6 whole entry, the tested form may be a part): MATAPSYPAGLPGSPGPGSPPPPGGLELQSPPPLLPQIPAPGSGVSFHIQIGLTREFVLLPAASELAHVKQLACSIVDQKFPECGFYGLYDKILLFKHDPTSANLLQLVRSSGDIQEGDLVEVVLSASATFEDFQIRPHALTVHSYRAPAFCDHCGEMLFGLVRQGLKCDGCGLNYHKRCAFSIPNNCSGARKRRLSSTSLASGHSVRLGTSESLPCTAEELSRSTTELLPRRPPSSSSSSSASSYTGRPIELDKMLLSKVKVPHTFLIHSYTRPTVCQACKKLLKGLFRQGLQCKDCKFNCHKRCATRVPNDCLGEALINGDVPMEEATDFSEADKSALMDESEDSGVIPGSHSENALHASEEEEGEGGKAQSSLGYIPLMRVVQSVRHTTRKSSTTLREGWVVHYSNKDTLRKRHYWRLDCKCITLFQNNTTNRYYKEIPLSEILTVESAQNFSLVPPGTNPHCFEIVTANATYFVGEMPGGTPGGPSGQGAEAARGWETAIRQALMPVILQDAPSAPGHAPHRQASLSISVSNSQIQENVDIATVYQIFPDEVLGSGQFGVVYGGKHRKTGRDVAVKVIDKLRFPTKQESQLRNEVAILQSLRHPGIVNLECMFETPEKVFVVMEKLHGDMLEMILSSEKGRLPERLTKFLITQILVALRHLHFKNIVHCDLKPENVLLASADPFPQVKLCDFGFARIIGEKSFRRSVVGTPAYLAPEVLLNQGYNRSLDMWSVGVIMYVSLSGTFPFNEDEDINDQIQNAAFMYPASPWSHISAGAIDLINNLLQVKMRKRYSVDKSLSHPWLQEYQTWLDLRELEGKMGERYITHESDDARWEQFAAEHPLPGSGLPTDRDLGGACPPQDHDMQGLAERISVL

[15] = molecular target: Mitogen-activated protein kinase kinase kinase kinase 3 (Homo sapiens) (UniProt Q8IVH8); assay: Inhibition of recombinant human MAP4K3 (1 to 291 residues) assessed as residual activity at 10 uM using RLGRDKYKTLRQI as substrate incubated for 40 mins in presence of [gamma-33ATP by scintillation counting based radiometry assay relative to control
Sequence of Mitogen-activated protein kinase kinase kinase kinase 3 (Homo sapiens) (Q8IVH8 whole entry, the tested form may be a part): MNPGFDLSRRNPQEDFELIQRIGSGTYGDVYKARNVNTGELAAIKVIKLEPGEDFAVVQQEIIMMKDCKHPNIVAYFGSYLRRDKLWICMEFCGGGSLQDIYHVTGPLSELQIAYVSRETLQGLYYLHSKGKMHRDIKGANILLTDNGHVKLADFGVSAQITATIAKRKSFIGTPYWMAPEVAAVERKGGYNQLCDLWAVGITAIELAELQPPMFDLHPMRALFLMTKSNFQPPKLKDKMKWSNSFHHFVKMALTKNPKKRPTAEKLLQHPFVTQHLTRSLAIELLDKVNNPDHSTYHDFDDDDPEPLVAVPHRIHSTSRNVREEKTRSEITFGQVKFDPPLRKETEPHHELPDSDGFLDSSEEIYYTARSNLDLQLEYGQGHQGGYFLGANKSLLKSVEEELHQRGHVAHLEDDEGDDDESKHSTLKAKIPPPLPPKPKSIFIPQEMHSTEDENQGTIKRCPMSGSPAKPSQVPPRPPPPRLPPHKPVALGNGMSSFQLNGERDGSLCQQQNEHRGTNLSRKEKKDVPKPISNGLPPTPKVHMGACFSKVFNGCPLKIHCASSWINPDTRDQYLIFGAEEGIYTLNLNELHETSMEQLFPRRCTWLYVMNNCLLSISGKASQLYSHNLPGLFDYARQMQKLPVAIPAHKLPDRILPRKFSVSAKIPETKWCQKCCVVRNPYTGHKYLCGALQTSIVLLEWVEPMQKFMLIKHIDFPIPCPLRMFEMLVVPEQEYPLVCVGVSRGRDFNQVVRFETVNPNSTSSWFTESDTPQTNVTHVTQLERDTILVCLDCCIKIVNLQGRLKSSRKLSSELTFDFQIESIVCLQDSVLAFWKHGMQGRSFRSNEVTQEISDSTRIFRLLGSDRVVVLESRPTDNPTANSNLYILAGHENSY

Mus musculus = species on record: Mus musculus; assay: Inhibition of mouse MAPK2 assessed as residual activity at 10 uM relative to control
[16] = test system: Mast/stem cell growth factor receptor Kit (Homo sapiens), P10721 [D816H]; assay: Inhibition of recombinant human C-Kit D816H mutant (544 to end residues) assessed as residual activity at 10 uM poly(Glu, Tyr) 4:1 as substrate incubated 40 mins in presence of [gamma-33ATP] by scintillation counting based radiometry assay relative to control
[17] = molecular target: Serine/threonine-protein kinase WNK2 (Homo sapiens) (UniProt Q9Y3S1); assay: Inhibition of recombinant human WNK2 (166 to 489 residues) assessed as residual activity at 10 uM using myelin basic protein as substrate incubated for 40 mins in presence of [gamma33P]ATP by scintillation counting based radiometry assay relative to control
[18] = molecular target: Calcium/calmodulin-dependent protein kinase type 1D (Homo sapiens) (UniProt Q8IU85); assay: Inhibition of recombinant full length human CaMK1delta assessed as residual activity at 10 uM using […] incubated for 40 mins in presence of [gamma-33ATP] by scintillation counting based radiometry assay relative to control
[19] = molecular target: Serine/threonine-protein kinase NLK (Homo sapiens) (UniProt Q9UBE8); assay: Inhibition of recombinant human NLK (121 to end residues) assessed as residual activity at 10 uM using protein as substrate measured after 40 mins in presence of [gamma33P]ATP by scintillation counting based radiometry assay relative to control

Q: For `C[C@@H](c1ccccc1)n1nnc2cnc3ccc(-c4cnc5[nH]ccc5c4)cc3c21`, which Activity [1] is on record?
A: 140%

Q: And the Activity [2]?
A: 1%

Q: What about the Activity [3] of the same molecule?
A: 62%

Q: And the Activity (A549)?
A: Dose-dependent effect

Q: And the Activity [4]?
A: 63%

Q: And the Activity [5]?
A: 6%

Q: What about the Activity [6] of the same molecule?
A: 85%

Q: And the Activity [7]?
A: 60%

Q: And the Activity [8]?
A: 26%

Q: And the Activity [9]?
A: 16%

Q: And the Activity [10]?
A: 105%

Q: And the Activity [11]?
A: 119%

Q: What about the Activity [12] of the same molecule?
A: 39%

Q: What about the Activity [13] of the same molecule?
A: 76%

Q: And the Activity [14]?
A: 65%

Q: What about the Activity [15] of the same molecule?
A: 73%

Q: And the Activity (Mus musculus)?
A: 100%

Q: And the Activity [16]?
A: 8%

Q: What about the Activity [17] of the same molecule?
A: 85%

Q: And the Activity [18]?
A: 43%

Q: What about the Activity [19] of the same molecule?
A: 43%
